Experimental data taken from US8471005B2 (Cephalon, Inc., priority 2008, dated 2013).
Like-named read-outs stand apart in the source and are kept apart here.

Experiments:
ALK = target: T1, ALK (Homo sapiens, UniProt Q9UM73); experiment: ALK Kinase Assay (ELISA/TRF, PLC-γ substrate); type: biochemical; conditions: read-out: ALK Potency
T1 construct: host or cells: baculovirus expression system
Procedure, shortened: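 IC50 values derive from percent inhibition plotted against log10 compound concentration and fitted to a variable-slope sigmoidal equation. The underlying reaction used 30 ng/ml ALK acting on immobilized PLC-γ (10 μg/mL in TBS) at 37° C for 15 minutes, read with Eu-N1 PT66 antibody.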

JAK2 = target: T2, JAK2 (Homo sapiens, UniProt O60674); experiment: Recombinant Human JAK2 Kinase Assay (TRF); type: biochemical; conditions: read-out: JAK2 Potency
T2 construct: host or cells: baculovirus expression system
T2 sequence (O60674 whole entry): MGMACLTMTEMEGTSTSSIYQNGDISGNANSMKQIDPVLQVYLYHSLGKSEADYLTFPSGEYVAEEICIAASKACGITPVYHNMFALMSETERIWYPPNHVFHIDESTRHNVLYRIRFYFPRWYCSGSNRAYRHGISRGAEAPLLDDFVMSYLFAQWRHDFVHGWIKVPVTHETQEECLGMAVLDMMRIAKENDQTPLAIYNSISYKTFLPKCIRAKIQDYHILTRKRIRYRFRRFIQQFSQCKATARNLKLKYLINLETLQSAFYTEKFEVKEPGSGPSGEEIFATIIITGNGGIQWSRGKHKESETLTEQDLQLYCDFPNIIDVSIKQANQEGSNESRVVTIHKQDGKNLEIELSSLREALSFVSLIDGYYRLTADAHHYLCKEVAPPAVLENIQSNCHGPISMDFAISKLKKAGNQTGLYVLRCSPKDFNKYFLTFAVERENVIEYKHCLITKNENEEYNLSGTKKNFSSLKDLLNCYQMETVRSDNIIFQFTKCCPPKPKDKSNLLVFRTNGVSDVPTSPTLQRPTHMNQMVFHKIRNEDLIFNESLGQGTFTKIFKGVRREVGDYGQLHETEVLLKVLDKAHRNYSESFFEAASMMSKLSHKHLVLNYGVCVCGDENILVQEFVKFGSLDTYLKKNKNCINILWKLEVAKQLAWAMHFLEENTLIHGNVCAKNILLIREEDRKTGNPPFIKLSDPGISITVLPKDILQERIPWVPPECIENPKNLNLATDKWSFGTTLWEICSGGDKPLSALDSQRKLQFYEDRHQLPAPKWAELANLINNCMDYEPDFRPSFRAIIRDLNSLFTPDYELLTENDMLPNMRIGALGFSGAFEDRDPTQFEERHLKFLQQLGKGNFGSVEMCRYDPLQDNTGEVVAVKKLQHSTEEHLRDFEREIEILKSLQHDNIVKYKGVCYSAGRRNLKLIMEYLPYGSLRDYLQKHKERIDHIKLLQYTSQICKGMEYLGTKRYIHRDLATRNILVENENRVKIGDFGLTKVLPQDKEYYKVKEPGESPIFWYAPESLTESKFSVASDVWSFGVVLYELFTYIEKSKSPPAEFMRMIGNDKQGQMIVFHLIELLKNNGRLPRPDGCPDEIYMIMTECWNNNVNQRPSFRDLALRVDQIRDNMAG
Procedure, shortened: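 Kinase activity of baculovirus-expressed JAK2 is followed on a surface-immobilised biotinylated peptide, with the reaction run for 20 min at room temperature in buffer containing 0.2 μM ATP and manganese. Phosphorylation is read with Eu-N1 PY100 antibody.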

[1] = ALK kinase inhibition, 1 μM ATP
[2] = JAK2 kinase inhibition, 0.2 μM ATP

T1 sequence (Q9UM73 19-1620): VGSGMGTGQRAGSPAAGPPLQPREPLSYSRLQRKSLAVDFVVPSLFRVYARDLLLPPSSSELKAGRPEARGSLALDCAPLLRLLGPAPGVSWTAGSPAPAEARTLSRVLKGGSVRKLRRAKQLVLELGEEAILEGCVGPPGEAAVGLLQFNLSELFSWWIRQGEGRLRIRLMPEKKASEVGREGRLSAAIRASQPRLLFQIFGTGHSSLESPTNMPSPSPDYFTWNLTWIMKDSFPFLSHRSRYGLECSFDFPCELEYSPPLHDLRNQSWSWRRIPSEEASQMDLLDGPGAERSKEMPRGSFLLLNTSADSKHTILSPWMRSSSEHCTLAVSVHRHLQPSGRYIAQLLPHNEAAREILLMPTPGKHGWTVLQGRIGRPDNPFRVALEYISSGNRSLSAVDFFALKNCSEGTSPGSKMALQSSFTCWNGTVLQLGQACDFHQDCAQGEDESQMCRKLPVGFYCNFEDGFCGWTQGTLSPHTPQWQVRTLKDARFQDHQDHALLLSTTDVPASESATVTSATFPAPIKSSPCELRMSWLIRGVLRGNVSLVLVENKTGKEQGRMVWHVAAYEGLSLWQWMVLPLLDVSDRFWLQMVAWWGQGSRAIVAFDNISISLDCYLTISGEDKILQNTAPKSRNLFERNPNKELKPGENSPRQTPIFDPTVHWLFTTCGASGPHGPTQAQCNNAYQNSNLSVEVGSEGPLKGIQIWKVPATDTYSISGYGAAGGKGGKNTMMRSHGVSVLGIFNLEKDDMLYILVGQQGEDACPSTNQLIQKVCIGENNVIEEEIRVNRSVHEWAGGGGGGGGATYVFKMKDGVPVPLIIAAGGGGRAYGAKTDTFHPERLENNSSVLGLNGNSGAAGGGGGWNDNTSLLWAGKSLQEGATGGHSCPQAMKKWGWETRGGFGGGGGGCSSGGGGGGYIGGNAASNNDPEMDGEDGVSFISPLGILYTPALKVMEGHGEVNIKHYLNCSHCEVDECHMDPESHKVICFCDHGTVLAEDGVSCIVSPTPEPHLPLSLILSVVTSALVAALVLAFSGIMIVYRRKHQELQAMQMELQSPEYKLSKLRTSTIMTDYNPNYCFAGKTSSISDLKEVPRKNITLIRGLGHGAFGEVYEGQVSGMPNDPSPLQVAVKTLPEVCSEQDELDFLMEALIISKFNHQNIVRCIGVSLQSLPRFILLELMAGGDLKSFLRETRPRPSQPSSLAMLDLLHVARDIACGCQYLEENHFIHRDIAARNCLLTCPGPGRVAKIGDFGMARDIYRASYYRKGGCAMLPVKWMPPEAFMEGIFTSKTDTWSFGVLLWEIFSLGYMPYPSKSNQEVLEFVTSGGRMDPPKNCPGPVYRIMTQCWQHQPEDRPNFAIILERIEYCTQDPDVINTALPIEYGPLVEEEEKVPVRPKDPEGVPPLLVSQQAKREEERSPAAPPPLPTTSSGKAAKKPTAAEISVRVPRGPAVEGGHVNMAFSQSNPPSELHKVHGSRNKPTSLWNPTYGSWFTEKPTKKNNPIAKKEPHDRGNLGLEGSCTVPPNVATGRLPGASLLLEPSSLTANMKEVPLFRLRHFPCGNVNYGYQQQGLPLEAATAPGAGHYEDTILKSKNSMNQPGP

IC50 (ALK; [1]) | IC50 (JAK2; [2]) | IC50 (ALK; ALK Kinase Inhibition) | IC50 (JAK2; JAK2 Kinase Inhibition) | Compound
100 to 1000 nM | < 100 nM | – | – | CC(C)(C)NS(=O)(=O)c1cccc(-c2ccc3cnc(Nc4ccc(C5CCN(CC(N)=O)CC5)cc4)nn23)c1 [Example 1055, 2-(4-{4-[7-(3-tert-Butylsulfamoyl-phenyl)-pyrrolo[2,1-f][1,2,4]triazin-2-ylamino]-phenyl}-piperidin-1-yl)-acetamide]
> 10000 nM | 1000 to 10000 nM | – | – | CN1CCN(c2ccc(Nc3ncc4c(-c5cccc(F)c5)ccn4n3)cc2)CC1 [Example 730, [5-(3-Fluoro-phenyl)-pyrrolo[2,1-f][1,2,4]triazin-2-yl]-[4-(4-methyl-piperazin-1-yl)-phenyl]-amine]
1000 to 10000 nM | < 100 nM | – | – | COc1ccccc1-c1ccc2cnc(Nc3cnn(CCN4CCOCC4)c3)nn12 [Example 1190, [7-(2-Methoxy-phenyl)-pyrrolo[2,1-f][1,2,4]triazin-2-yl]-[1-(2-morpholin-4-yl-ethyl)-1H-pyrazol-4-yl]-amine]
1000 to 10000 nM | < 100 nM | – | – | C1=C(c2ccc3cnc(Nc4ccc(N5CCOCC5)cc4)nn23)CCSC1 [Example 613, [7-(3,6-Dihydro-2H-thiopyran-4-yl)-pyrrolo[2,1-f][1,2,4]triazin-2-yl]-(4-morpholin-4-yl-phenyl)-amine]
1000 to 10000 nM | < 100 nM | – | – | CC(C)(C)NS(=O)(=O)c1cccc(-c2ccc3cnc(Nc4cccc(C(=O)N5CCOCC5)c4)nn23)c1 [Example 892, N-tert-Butyl-3-{2-[3-(morpholine-4-carbonyl)-phenylamino]-pyrrolo[2,1-f][1,2,4]triazin-7-yl}-benzenesulfonamide]
< 100 nM | < 100 nM | – | – | OCCN1CCN(c2ccc(Nc3ncc4ccc(-c5cccc(Cl)c5)n4n3)cc2)CC1 [Example 1134, 2-(4-{4-[7-(3-Chloro-phenyl)-pyrrolo[2,1-f][1,2,4]triazin-2-ylamino]-phenyl}-piperazin-1-yl)-ethanol]
– | – | 1000 to 10000 nM | < 100 nM | COc1ccc(-c2ccc3cnc(Nc4ccc(C(=O)N5CCN(C)CC5)cc4)nn23)cn1 [Example 1420, {4-[7-(6-Methoxy-pyridin-3-yl)-pyrrolo[2,1-f][1,2,4]triazin-2-ylamino]-phenyl}-(4-methyl-piperazin-1-yl)-methanone]
100 to 1000 nM | < 100 nM | – | – | CN(c1ccccc1-c1ccc2cnc(Nc3ccc4nc(CO)[nH]c4c3)nn12)S(C)(=O)=O [Example 1071, N-{2-[2-(2-Hydroxymethyl-3H-benzoimidazol-5-ylamino)-pyrrolo[2,1-f][1,2,4]triazin-7-yl]-phenyl}-N-methyl-methanesulfonamide]
< 100 nM | 1000 to 10000 nM | – | – | COc1cc(CN2CCNCC2)ccc1Nc1ncc2ccc(-c3ccccc3N(C)S(C)(=O)=O)n2n1 [Example 1223, N-{2-[2-(2-Methoxy-4-piperazin-1-ylmethyl-phenylamino)-pyrrolo[2,1-f][1,2,4]triazin-7-yl]-phenyl}-N-methyl-methanesulfonamide]
< 100 nM | < 100 nM | – | – | COc1ccc(-c2ccc3cnc(Nc4ccc(C5CCN(C)CC5)c(OC)c4)nn23)cn1 [Example 910, [3-Methoxy-4-(1-methyl-piperidin-4-yl)-phenyl]-[7-(6-methoxy-pyridin-3-yl)-pyrrolo[2,1-f][1,2,4]triazin-2-yl]-amine]
– | – | 100 to 1000 nM | < 100 nM | COc1ccc(Cl)cc1-c1ccc2cnc(Nc3ccc4ncccc4c3)nn12 [Example 173, [7-(5-Chloro-2-methoxy-phenyl)-pyrrolo[2,1-f][1,2,4]triazin-2-yl]-quinolin-6-yl-amine]
– | – | 1000 to 10000 nM | < 100 nM | OCC1CCN(c2ccc(Nc3ncc4ccc(-c5cccnc5)n4n3)cc2)CC1 [Example 116, {1-[4-(7-Pyridin-3-yl-pyrrolo[2,1-f][1,2,4]triazin-2-ylamino)-phenyl]-piperidin-4-yl}-methanol]
– | – | 100 to 1000 nM | < 100 nM | COc1cc(Nc2ncc3ccc(-c4cccc(Cl)c4)n3n2)ccc1N1CCOCC1 [Example 65, [7-(3-Chloro-phenyl)-pyrrolo[2,1-f][1,2,4]triazin-2-yl]-(3-methoxy-4-morpholin-4-yl-phenyl)-amine]
100 to 1000 nM | 100 to 1000 nM | – | – | COc1ccccc1-c1ccc2cnc(Nc3ccc4c(c3OC)CC(N3CCOCC3)CCC4)nn12 (racemic) [Example 768, (±)-1-Methoxy-8-morpholin-4-yl-6,7,8,9-tetrahydro-5H-enzocyclohepten-2-yl)-[7-(2-methoxy-phenyl)-pyrrolo[2,1-f][1,2,4]triazin-2-yl]-amine]
> 10000 nM | < 100 nM | – | – | COc1ccc(-c2ccc3cnc(Nc4ccc5nc(C(F)(F)F)[nH]c5c4)nn23)cn1 [Example 1308, [7-(6-Methoxy-pyridin-3-yl)-pyrrolo[2,1-f][1,2,4]triazin-2-yl]-(2-trifluoromethyl-3H-benzimidazol-5-yl)-amine]
1000 to 10000 nM | > 10000 nM | – | – | COc1ccc(C(=O)N2CCN(C)CC2)cc1Nc1ncc2ccc(-c3ccccc3N(C)S(C)(=O)=O)n2n1 [Example 496, N-(2-{2-[2-Methoxy-5-(4-methyl-piperazine-1-carbonyl)-phenylamino]-pyrrolo[2,1-f][1,2,4]triazin-7-yl}-phenyl)-N-methyl-methanesulfonamide]
> 10000 nM | < 100 nM | – | – | CON=C1CCC(c2ccc(Nc3ncc4ccc(-c5cccc(S(=O)(=O)NC(C)(C)C)c5)n4n3)cc2)CC1 (stereo not shown) [Example 571, N-tert-Butyl-3-{2-[4-(4-methoxyimino-cyclohexyl)-phenylamino]-pyrrolo[2,1-f][1,2,4]triazin-7-yl}-benzenesulfonamide]
– | – | 100 to 1000 nM | < 100 nM | CS(=O)(=O)Nc1cccc(-c2ccc3cnc(Nc4ccc(N5CCOCC5)cc4)nn23)c1 [Example 201, N-{3-[2-(4-Morpholin-4-yl-phenylamino)-pyrrolo[2,1-f][1,2,4]triazin-7-yl]-phenyl}-methanesulfonamide]
< 100 nM | 100 to 1000 nM | – | – | COc1cc(N2CCC(N3CCCOCC3)CC2)ccc1Nc1ncc2ccc(-c3ccccc3N(C)S(C)(=O)=O)n2n1 [Example 783, N-(2-{2-[2-Methoxy-4-(4-[1,4]oxazepan-4-yl-piperidin-1-yl)-henylamino]-pyrrolo[2,1-f][1,2,4]triazin-7-yl}-phenyl)-N-methyl-methanesulfonamide]
– | – | > 10000 nM | 1000 to 10000 nM | CN(C)c1cccc(Nc2ncc3ccc(-c4cccc(Cl)c4)n3n2)c1 [Example 159, N-[7-(3-Chloro-phenyl)-pyrrolo[2,1-f][1,2,4]triazin-2-yl]-N′,N′-dimethyl-benzene-1,3-diamine]
< 100 nM | < 100 nM | – | – | CCN1CCCC(CC)(c2ccc(Nc3ncc4ccc(-c5ccccc5OC)n4n3)cc2)C1 (racemic) [Example 777, (±)-[4-(1,3-Diethyl-piperidin-3-yl)-phenyl]-[7-(2-methoxy-phenyl)pyrrolo-[2,1-f][1,2,4]triazin-2-yl]-amine]
1000 to 10000 nM | < 100 nM | – | – | COc1ccccc1-c1ccc2cnc(Nc3ccc(=O)[nH]c3)nn12 [Example 591, 5-[7-(2-Methoxy-phenyl)-pyrrolo[2,1-f][1,2,4]triazin-2-ylamino]-1H-pyridin-2-one]
100 to 1000 nM | 1000 to 10000 nM | – | – | COc1cc(C2(NC(=O)C(F)(F)F)CCC2)ccc1Nc1ncc2ccc(-c3ccccc3N(C)S(C)(=O)=O)n2n1 [Example 1254, 2,2,2-Trifluoro-N-[1-(4-{7-[2-(methanesulfonyl-methyl-amino)-phenyl]-pyrrolo[2,1-f][1,2,4]triazin-2-ylamino}-3-methoxy-phenyl)-cyclobutyl]-acetamide]
– | – | < 100 nM | 100 to 1000 nM | COc1cc(N2CCC[C@H](CN3CCN(C)CC3)C2)ccc1Nc1ncc2ccc(-c3ccccc3N(C)S(C)(=O)=O)n2n1 [Example 465, N-[2-(2-{2-Methoxy-4-[(R)-3-(4-methyl-piperazin-1-ylmethyl)-piperidin-1-yl]-phenylamino}-pyrrolo[2,1-f][1,2,4]triazin-7-yl)-phenyl]-N-methyl-methanesulfonamide]
– | – | < 100 nM | 100 to 1000 nM | COc1cc(N2CCCC(N3CCN(C)CC3)C2)ccc1Nc1ncc2ccc(-c3ccccc3OC)n2n1 (stereo not shown) [Example 235, {2-Methoxy-4-[3-(4-methyl-piperazin-1-yl)-piperidin-1-yl]-phenyl}-[7-(2-methoxy-phenyl)-pyrrolo[2,1-f][1,2,4]triazin-2-yl]-amine]
< 100 nM | 100 to 1000 nM | – | – | COc1cc(C2CCN(C[C@@H](C)O)CC2)ccc1Nc1ncc2ccc(-c3ccccc3OC)n2n1 [Example 787, (R)-1-(4-{3-Methoxy-4-[7-(2-methoxy-phenyl)-pyrrolo[2,1-f][1,2,4]triazin-2-ylamino]-phenyl}-piperidin-1-yl)-propan-2-ol]
1000 to 10000 nM | < 100 nM | – | – | CC(C)(C)NS(=O)(=O)c1cccc(-c2ccc3cnc(Nc4cccc(C(=O)O)c4)nn23)c1 [Example 895, 3-[7-(3-tert-Butylsulfamoyl-phenyl)-pyrrolo[2,1-f][1,2,4]triazin-2-ylamino]-benzoic acid]
100 to 1000 nM | < 100 nM | – | – | COc1ccc(-c2ccc3cnc(Nc4cccc(NC(=O)CN(C)C)c4)nn23)cn1 [Example 899, 2-Dimethylamino-N-{3-[7-(6-methoxy-pyridin-3-yl)-pyrrolo[2,1-f][1,2,4]triazin-2-ylamino]-phenyl}-acetamide]
< 100 nM | < 100 nM | – | – | COc1cc(N2CCC(N3CCCN(C)CC3)CC2)ccc1Nc1ncc2ccc(-c3ccccc3OC)n2n1 [Example 781, {2-Methoxy-4-[4-(4-methyl-[1,4]diazepan-1-yl)-piperidin-1-yl]-phenyl}-[7-(2-methoxy-phenyl)-pyrrolo[2,1-f][1,2,4]triazin-2-yl]-amine]
